Holding throughout (assay type): cell-based
The test system of test [1] is human T cell line KARPAS-299. Put plainly: WST-1 cell proliferation assay, KARPAS-299 cells. As to conditions: single and simultaneous administration of I49 and APN inhibitors Actinonin and Probestin (FIG. 8). As for the experimental part: FIG. 8: The KARPAS-299 cells were incubated without addition (control) and in the presence of single inhibitors mentioned above as well as in the presence of combinations thereof, respectively. Subsequently, the number of metabolically active cells was determined by using the commercially available WST-1 cell proliferation assay (Takara Inc.) in accordance with the provisions of the manufacturer.
In general terms: Formazan colour is commonly taken as a measure of viable cells.

The test system of test [2] is PHA-activated human mononuclear cells (MNZ). Put plainly: WST-1 cell proliferation assay, PHA-activated human mononuclear cells (MNZ). As for the experimental part: FIG. 7: The MNZ were incubated for a time period of 72 h without addition (control), with an addition of the mitogenic lectin phytohemagglutinin (PHA), and with the addition of PHA and the inhibitors mentioned above, respectively. Subsequently, the number amount of metabolically active cells was determined by using the commercially available WST-1 cell proliferation assay (Takara Inc.) in accordance with the provisions of the manufacturer.
FIG. 10: The mononuclear cells (MNZ) were incubated for a time period of 72 h in the presence of the inhibitors mentioned above single and in combination. Subsequently, the number of metabolically active cells was determined by using the commercially available WST-1 cell proliferation assay (Takara Inc.) in accordance with the provisions of the manufacturer.

Test [3] has as its system human peripheric mononuclear cells (MNZ). Put plainly: DNA synthesis of human peripheric mononuclear cells (MNZ), 3[H]-thymidine incorporation. The following applies: 72 h incubation. How it is done: The MNZ were incubated for 72 h in the presence of said inhibitors, and the DNA synthesis rate was determined subsequently by the measurement of the ^3[H]-thymidine incorporation, as was described by Reinhold et al. [D. Reinhold et al.: “Inhibitors of dipeptidyl peptidase IV induce secretion of transforming growth factor β1 in PWM-stimulated PBMNC and T cells”, Immunology 1997, 91, 354-360].
Human MNZ were incubated for three days with the concentrations of inhibitors mentioned above. Subsequently, ^3[H]-methyl thymidine was added to the culture medium, and the amount of ^3[H]-thymidine incorporated into the DNA was measured after further 6 hours.
The MNZ were incubated for 72 h in the presence of said inhibitors, and the DNA synthesis rate was determined subsequently by the measurement of the ^3[H]-thymidine incorporation, as was described by Reinhold et al. [D. Reinhold et al.; “Inhibitors of dipeptidyl peptidase IV induce secretion of transforming growth factor β1 in PWM-stimulated PBMNC and T cells”, Immunology 1997, 91, 354-360].
A general note: Uptake of a labelled nucleoside into DNA is a usual measure of proliferation.

For test [4], the system named is activated human peripheric T cells. Put plainly: WST-1 cell proliferation assay, activated human peripheric T cells. As to conditions: single or simultaneous administration of I49 and APN inhibitors Actinonin and Probestin; activation by phytohemagglutinine and phorbol-12-myristate-13-acetate; 72 h (FIG. 9). As for the experimental part:
FIG. 9: The T cells, with the exception of the untreated control, were activated by an addition of phytohemagglutinine and phorbol-12-myristate-13-acetate to the culture medium and were incubated for a time period of 72 h in the presence of the above-mentioned inhibitors single and in combination. Subsequently, the number of metabolically active cells was determined by using the commercially available WST-1 cell proliferation assay (Takara Inc.) in accordance with the provisions of the manufacturer.

Test [5] relates to human peripheric T lymphocytes. Put plainly: DNA synthesis of human peripheric T lymphocytes, 3[H]-thymidine incorporation. The following applies: 72 h incubation. How it is done: The T cells were incubated for 72 h in the presence of said inhibitors and subsequently, the DNA synthesis rate was determined via a measurement of the ^3[H]-thymidin incorporation, as was described by Reinhold et al. [D. Reinhold et al,: “Inhibitors of dipeptidyl peptidase IV induce secretion of transforming growth factor β1 in PWM-stimulated PBMNC and T cells”, Immunology 1997, 91, 354-360].
Human peripheric T cells were incubated over 3 days with the concentrations of the inhibitors shown. Subsequently, ^3[H]-methyl thymidine was added to the culture medium, and the amount of ^3[H]-thymidine inserted into the DNA was measured after further 6 hours.
The T cells were incubated for 72 h in the presence of said inhibitors, and the DNA synthesis rate was determined subsequently by the measurement of the ^3[H]-thymidine incorporation, as was described by Reinhold et al. [D. Reinhold et al.: “Inhibitors of dipeptidyl peptidase IV induce secretion of transforming growth factor β1 in PWM-stimulated PBMNC and T cells”, Immunology 1997, 91, 354-360].
FIG. 3 show a the synergistic and dose-dependent effect of inhibitors of DP IV (I49) and of prolyl oligopeptidase (Boc-Ala-Thia) on the DNA synthesis of human peripheric T lymphocytes. Human T cells were incubated for three days with the concentrations of inhibitors mentioned above. Subsequently, ^3[H]-methyl thymidine was added to the culture medium, and the amount of ^3[H]-thymidine incorporated into the DNA was measured after further 6 hours.
Human T cells were incubated for three days with the concentrations of inhibitors mentioned above. Subsequently, ^3[H]-methyl thymidine was added to the culture medium, and the amount of ^3[H]-thymidine incorporated into the DNA was measured after further 6 hours.

Where [6] appears, read: single and simultaneous administration of I49 and Actinonin, PHA, 72 h (FIG. 7).
[7] abbreviates: simultaneous administration of DP IV inhibitor I49 and APN inhibitor actinonine, dose-dependent (FIG. 2).
Where [8] appears, read: simultaneous administration of DP IV inhibitor I49 and APN inhibitor Actinonin, dose-dependent (FIG. 1).
The mark [9] stands for this setting: single or simultaneous administration of I49 and APP inhibitor Apstatin, PHA-activated, 72 h (FIG. 10).
The mark [10] stands for this setting: simultaneous administration of DP IV inhibitor I49 and prolyl oligopeptidase inhibitor Boc-Ala-Thiazolidid, dose-dependent (FIG. 4).
[11] abbreviates: simultaneous administration of DP IV inhibitor I49 and prolyl oligopeptidase inhibitor Boc-Ala-thiazolidid, dose-dependent (FIG. 3).
Where [12] appears, read: simultaneous administration of DP IV inhibitor I49 and ACE inhibitor Captopril, dose-dependent (FIG. 6).
Setting [13] is: simultaneous administration of DP IV inhibitor I49 and ACE inhibitor Captopril, dose-dependent (FIG. 5).

On to `CCCCC[C@H](CC(=O)NO)C(=O)N[C@H](C(=O)N1CCC[C@H]1CO)C(C)C` [Actinonin], for which the “inhibition of proliferation (number of metabolically active cells)” value (shortened to “inhibition of proliferation”) in test [1], in test [2] (setting [6]) and in test [4] was “Inhibition of the Proliferation” throughout. The “inhibition of DNA synthesis” value in test [3] (setting [7]) and in test [5] (setting [8]) was “inhibited in a superadditive manner” each time.

As for `C[C@H](NC(=O)[C@@H]1CCCN1C(=O)[C@@H]1CCCN1C(=O)[C@@H](O)[C@H](N)Cc1ccccc1)C(N)=O` [Apstatin], the “inhibition of proliferation” value in test [2] (setting [9]) is “Inhibition of the Proliferation”.

On to `CC(NC(=O)OC(C)(C)C)C(=O)N1CCSC1` (stereo not drawn) [Boc-Ala-thiazolidid], for which the “inhibition of DNA synthesis” value in test [3] (setting [10]) and in test [5] (setting [11]) was “inhibited in a superadditive manner” in each case.

Turning to `C[C@H](CS)C(=O)N1CCC[C@H]1C(=O)O` [Captopril], the “inhibition of DNA synthesis” value in test [3] (setting [12]) and in test [5] (setting [13]) was “inhibited in a superadditive manner” in each case.

Regarding `NC(CCCCNC(=O)OCc1ccc([N+](=O)[O-])cc1)C(=O)N1CCSC1` (stereo not shown) [I49, Lys[Z(NO2)]-thiazolidid], the “inhibition of proliferation” value in test [1], in test [2] (setting [6]), in test [2] (setting [9]) and in test [4] was “Inhibition of the Proliferation” throughout. The “inhibition of DNA synthesis” value in test [3] (setting [12]), in test [3] (setting [7]), in test [3] (setting [10]), in test [5] (setting [13]), in test [5] (setting [8]) and in test [5] (setting [11]) was “inhibited in a superadditive manner” throughout.

As for `CC(C)C[C@H](NC(=O)[C@@H](O)[C@H](N)Cc1ccccc1)C(=O)N1CCC[C@H]1C(=O)N1CCC[C@H]1C(=O)O` [Probestin], the “inhibition of proliferation” value in test [1] and in test [4] was “Inhibition of the Proliferation” in each case.

For the origin of these results see patent publication US20050014699A1, “Combinations of enzyme inhibitor-containing preparations and the use thereof” (priority 2000, published 2005).
